# Source: patent US20090137549A1, “Novel compounds useful for the treatment of degenerative & inflamatory diseases” (priority 2006, published 2009)
# pIC50: −log10 of the molar value.
# Biological target: PDE1A (Homo sapiens, UniProt P54750)
# Assay: PDE1A dose response, Cyclic Nucleotide Phosphodiesterase Assay Kit from Biomol (colorimetric)
# Format: biochemical
# Settings: purified PDE1A enzyme, 100 μM cAMP
# From the text: For the dose response and further screening, we used the Cyclic Nucleotide
# Phosphodiesterase Assay Kit from Biomol, a colorimetric, non-radioactive assay. The basis for the assay is the cleavage of cAMP by PDE1A. The 5′AMP is further cleaved into the nucleoside and phosphate by the enzyme 5′-nucleotidase (catnr KI-307). The phosphate released due to enzymatic cleavage is quantified using BIOMOL GREEN™ reagent (catnr AK-111) in a modified Malachite Green assay^1,2. A PDE1A inhibitor will result in a decrease of the signal.
# For the enzymatic reaction a mix of 25 μL with purified PDE1A enzyme, 100 μM cAMP, 5′Nucleotidase and the compound is made in a clear 384-plate. The reaction buffer is Tris 20 mM pH 7.4, 4 μg/mL calmodulin, 3 mM MgCl2, 1.5 mM CaCl2, 0.2 mg/mL BSA and 0.001% Brij-35. After an incubation of 45 minutes at 37° C., the reaction is stopped by the addition of 50 μL BIOMOL GREEN™ reagent. After 30 minutes incubation at room temperature, the readout is performed on the Envision (absorption at 615 nm).
# All compounds are tested in duplicate starting from […] followed by a 1/3 serial dilution, 8 points (20 μM-6.67 μM-2.22 μM-740 nM-247 nM-82 nM-27 nM-9 nM) in a final concentration of 1% DMSO. As the positive dose response control compound Vardenafil is used. For the calculation of z′ and PIN values 10 μM Vardenafil is used as positive control (100% inhibition) and 1% DMSO as negative control (0% inhibition).
# The following compounds have been or can be prepared according to the synthetic methods described above. For the purpose of Table 7 below, PDE1A activity of each compound, which can be determined using the assay methods described herein, is expressed as follows: […]
row,SMILES,pIC50
1,"O=C(NCc1ccc(F)cc1)N1CC(c2nc3c(cnn3C3CCCCC3)c(=O)[nH]2)C1 [Example 30, 3-(1-cyclohexyl-4-oxo-4,5-dihydro-1H-pyrazolo[3,4-d]pyrimidin-6-yl)-N-(4-fluorobenzyl)azetidine-1-carboxamide]",7.00 to 9.00
2,"O=C(NCc1ccccc1)N1CC(c2nc3c(cnn3C3CCCCC3)c(=O)[nH]2)C1 [Example 31, N-benzyl-3-(1-cyclohexyl-4-oxo-4,5-dihydro-1H-pyrazolo[3,4-d]pyrimidin-6-yl)azetidine-1-carboxamide]",7.00 to 9.00
3,"O=C(NC1CCCC1)N1CC(c2nc3c(cnn3C3CCCCC3)c(=O)[nH]2)C1 [Example 32, 3-(1-cyclohexyl-4-oxo-4,5-dihydro-1H-pyrazolo[3,4-d]pyrimidin-6-yl)-N-cyclopentylazetidine-1-carboxamide]",7.00 to 9.00
4,"N#Cc1ccc(NC(=O)N2CC(c3nc4c(cnn4C4CCCCC4)c(=O)[nH]3)C2)cc1 [Example 33, N-(4-cyanophenyl)-3-(1-cyclohexyl-4-oxo-4,5-dihydro-1H-pyrazolo[3,4-d]pyrimidin-6-yl)azetidine-1-carboxamide]",7.00 to 9.00
5,"CCCCNC(=O)N1CC(c2nc3c(cnn3C3CCCCC3)c(=O)[nH]2)C1 [Example 34, N-butyl-3-(1-cyclohexyl-4-oxo-4,5-dihydro-1H-pyrazolo[3,4-d]pyrimidin-6-yl)azetidine-1-carboxamide]",7.00 to 9.00
6,"O=C(Nc1ccc(C(F)(F)F)cc1)N1CC(c2nc3c(cnn3C3CCCCC3)c(=O)[nH]2)C1 [Example 35, 3-(1-cyclohexyl-4-oxo-4,5-dihydro-1H-pyrazolo[3,4-d]pyrimidin-6-yl)-N-(4-(trifluoromethyl)phenyl)azetidine-1-carboxamide]",7.00 to 9.00
7,"O=C(NCc1ccc(Cl)c(Cl)c1)N1CC(c2nc3c(cnn3C3CCCCC3)c(=O)[nH]2)C1 [Example 37, 3-(1-cyclohexyl-4-oxo-4,5-dihydro-1H-pyrazolo[3,4-d]pyrimidin-6-yl)-N-(3,4-dichlorobenzyl)azetidine-1-carboxamide]",7.00 to 9.00
8,"CC(C)(C)NC(=O)N1CC(c2nc3c(cnn3C3CCCCC3)c(=O)[nH]2)C1 [Example 38, N-tert-butyl-3-(1-cyclohexyl-4-oxo-4,5-dihydro-1H-pyrazolo[3,4-d]pyrimidin-6-yl)azetidine-1-carboxamide]",7.00 to 9.00
9,"Cc1nn(C2CCCCC2)c2nc(C3CN(C(=O)NCc4ccc(Cl)c(Cl)c4)C3)[nH]c(=O)c12 [Example 39, 3-(1-cyclohexyl-3-methyl-4-oxo-4,5-dihydro-1H-pyrazolo[3,4-d]pyrimidin-6-yl)-N-(3,4-dichlorobenzyl)azetidine-1-carboxamide]",7.00 to 9.00
10,"CS(=O)(=O)N1CCC(NC(=O)N2CC(c3nc4c(cnn4C4CCCCC4)c(=O)[nH]3)C2)CC1 [Example 40, 3-(1-cyclohexyl-4-oxo-4,5-dihydro-1H-pyrazolo[3,4-d]pyrimidin-6-yl)-N-(1-(methylsulfonyl)piperidin-4-yl)azetidine-1-carboxamide]",7.00 to 9.00
11,"CC(C)(C)OC(=O)N1CCC(NC(=O)N2CC(c3nc4c(cnn4C4CCCCC4)c(=O)[nH]3)C2)CC1 [Example 41, tert-butyl 4-(3-(1-cyclohexyl-4-oxo-4,5-dihydro-1H-pyrazolo[3,4-d]pyrimidin-6-yl)azetidine-1-carboxamido)piperidine-1-carboxylate]",7.00 to 9.00
12,"Cc1nn(C2CCCCC2)c2nc(C3CN(C(=O)N[C@@H](C)c4ccccc4)C3)[nH]c(=O)c12 [Example 42, (S)-3-(1-cyclohexyl-3-methyl-4-oxo-4,5-dihydro-1H-pyrazolo[3,4-d]pyrimidin-6-yl)-N-(1-phenylethyl)azetidine-1-carboxamide]",7.00 to 9.00
13,"O=C(NCCC(F)(F)F)N1CC(c2nc3c(cnn3C3CCCCC3)c(=O)[nH]2)C1 [Example 43, 3-(1-cyclohexyl-4-oxo-4,5-dihydro-1H-pyrazolo[3,4-d]pyrimidin-6-yl)-N-(3,3,3-trifluoropropyl)azetidine-1-carboxamide]",7.00 to 9.00
14,"COc1ccc(S(=O)(=O)N2CCCC(c3nc4c(cnn4C4CCCCC4)c(=O)[nH]3)C2)cc1OC (stereo not drawn) [Example 44, 1-cyclohexyl-6-(1-(3,4-dimethoxyphenylsulfonyl)piperidin-3-yl)-1H-pyrazolo[3,4-d]pyrimidin-4(5H)-one]",7.00 to 9.00
15,"CN(C)c1cccc(C(=O)N2CCCC(c3nc4c(cnn4C4CCCCC4)c(=O)[nH]3)C2)c1 (stereo not drawn) [Example 45, 1-cyclohexyl-6-(1-(3-(dimethylamino)benzoyl)piperidin-3-yl)-1H-pyrazolo[3,4-d]pyrimidin-4(5H)-one]",6.30 to 7.00
16,"COc1ccc(S(=O)(=O)N2CCCC(c3nc4c(cnn4-c4ccccc4)c(=O)[nH]3)C2)cc1 (stereo not drawn) [Example 46, 6-(1-(4-methoxyphenylsulfonyl)piperidin-3-yl)-1-phenyl-1H-pyrazolo[3,4-d]pyrimidin-4(5H)-one]",6.30 to 7.00
17,"O=C(NC1CCOCC1)N1CC(c2nc3c(cnn3C3CCCCC3)c(=O)[nH]2)C1 [Example 47, 3-(1-cyclohexyl-4-oxo-4,5-dihydro-1H-pyrazolo[3,4-d]pyrimidin-6-yl)-N-(tetrahydro-2H-pyran-4-yl)azetidine-1-carboxamide]",6.30 to 7.00
18,"COc1ccccc1C(=O)N1CCCC(c2nc3c(cnn3C3CCCCC3)c(=O)[nH]2)C1 (stereo not drawn) [Example 48, 1-cyclohexyl-6-(1-(2-methoxybenzoyl)piperidin-3-yl)-1H-pyrazolo[3,4-d]pyrimidin-4(5H)-one]",6.30 to 7.00
19,"O=C(c1cccc2c1OCO2)N1CCCC(c2nc3c(cnn3C3CCCCC3)c(=O)[nH]2)C1 (stereo not drawn) [Example 49, 6-(1-(benzo[d][1,3]dioxole-4-carbonyl)piperidin-3-yl)-1-cyclohexyl-1H-pyrazolo[3,4-d]pyrimidin-4(5H)-one]",6.30 to 7.00
20,"Cc1nn(-c2ccc(F)cc2)c2nc(C3CN(C(=O)NC4CCCCC4)C3)[nH]c(=O)c12 [Example 50, N-cyclohexyl-3-(1-(4-fluorophenyl)-3-methyl-4-oxo-4,5-dihydro-1H-pyrazolo[3,4-d]pyrimidin-6-yl)azetidine-1-carboxamide]",6.30 to 7.00
21,"COc1ccc(S(=O)(=O)N2CCCC(c3nc4c(cnn4C4CCCCC4)c(=O)[nH]3)C2)cc1 (stereo not drawn) [Example 51, 1-cyclohexyl-6-(1-(4-methoxyphenylsulfonyl)piperidin-3-yl)-1H-pyrazolo[3,4-d]pyrimidin-4(5H)-one]",6.30 to 7.00
22,"COc1cccc(C(=O)N2CC(c3nc4c(c(C)nn4C4CCCCC4)c(=O)[nH]3)C2)c1 [Example 52, 1-cyclohexyl-6-(1-(3-methoxybenzoyl)azetidin-3-yl)-3-methyl-1H-pyrazolo[3,4-d]pyrimidin-4(5H)-one]",6.30 to 7.00
23,"COc1cccc(C(=O)N2CCCC(c3nc4c(cnn4C4CCCCC4)c(=O)[nH]3)C2)c1 (stereo not drawn) [Example 53, 1-cyclohexyl-6-(1-(3-methoxybenzoyl)piperidin-3-yl)-1H-pyrazolo[3,4-d]pyrimidin-4(5H)-one]",6.30 to 7.00
24,"O=C(c1ccccc1OC(F)(F)F)N1CCCC(c2nc3c(cnn3C3CCCCC3)c(=O)[nH]2)C1 (stereo not drawn) [Example 54, 1-cyclohexyl-6-(1-(2-(trifluoromethoxy)benzoyl)piperidin-3-yl)-1H-pyrazolo[3,4-d]pyrimidin-4(5H)-one]",6.30 to 7.00
25,"CCCCS(=O)(=O)Nc1cccc(C(=O)N2CCCC(c3nc4c(c(C)nn4C4CCCCC4)c(=O)[nH]3)C2)c1 (stereo not drawn) [Example 55, N-(3-(3-(1-cyclohexyl-3-methyl-4-oxo-4,5-dihydro-1H-pyrazolo[3,4-d]pyrimidin-6-yl)piperidine-1-carbonyl)phenyl)butane-1-sulfonamide]",6.30 to 7.00
26,"COc1ccc(S(=O)(=O)N2CCCC(c3nc4c(c(C)nn4C4CCCCC4)c(=O)[nH]3)C2)cc1 (stereo not drawn) [Example 56, 1-cyclohexyl-6-(1-(4-methoxyphenylsulfonyl)piperidin-3-yl)-3-methyl-1H-pyrazolo[3,4-d]pyrimidin-4(5H)-one]",6.30 to 7.00
27,"COc1ccccc1C(=O)N1CCCC(c2nc3c(c(C)nn3C3CCCCC3)c(=O)[nH]2)C1 (stereo not drawn) [Example 57, 1-cyclohexyl-6-(1-(2-methoxybenzoyl)piperidin-3-yl)-3-methyl-1H-pyrazolo[3,4-d]pyrimidin-4(5H)-one]",6.30 to 7.00
28,"Cc1nn(C2CCCCC2)c2nc(C3CCCN(C(=O)c4cccc5c4OC(F)(F)O5)C3)[nH]c(=O)c12 (stereo not drawn) [Example 58, 1-cyclohexyl-6-(1-(2,2-difluorobenzo[d][1,3]dioxole-4-carbonyl)piperidin-3-yl)-3-methyl-1H-pyrazolo[3,4-d]pyrimidin-4(5H)-one]",6.30 to 7.00
29,"Cc1nn(C2CCCCC2)c2nc(C3CCCN(C(=O)c4ccc(N(C)C)cc4)C3)[nH]c(=O)c12 (stereo not drawn) [Example 59, 1-cyclohexyl-6-(1-(4-(dimethylamino)benzoyl)piperidin-3-yl)-3-methyl-1H-pyrazolo[3,4-d]pyrimidin-4(5H)-one]",6.30 to 7.00
30,"CN(C)c1ccc(C(=O)N2CCCC(c3nc4c(cnn4C4CCCCC4)c(=O)[nH]3)C2)cc1 (stereo not drawn) [Example 60, 1-cyclohexyl-6-(1-(4-(dimethylamino)benzoyl)piperidin-3-yl)-1H-pyrazolo[3,4-d]pyrimidin-4(5H)-one]",6.30 to 7.00
